# Experimental data taken from patent publication US12195490B2, “STRAD-binding agents and uses thereof” (The Regents of the University of California, priority 2020, dated 2025).
# System: ACHN cell line
# Experiment: drug screen of the SelleckChem kinase inhibitor library with and without 5 uM SU-329, Cell-Titer Glo after 5 days
# Format: cell-based
# Settings: kinase inhibitor at 200 nM with and without 5 uM SU329; ACHN cell line; 5 days; Cell-Titer Glo
row,Compound,log2fc
1,CC(=O)Nc1cccc(-n2c(=O)n(C3CC3)c(=O)c3c(Nc4ccc(I)cc4F)n(C)c(=O)c(C)c32)c1 [Trametinib (GSK1120212)],0.4803
2,O=C1NC(=O)/C(=C/c2ccc3c(c2)OC(F)(F)O3)S1 [AS-604850],0.4876
3,"C[C@H](Nc1ncnc2nc[nH]c12)c1cc2cccc(Cl)c2c(=O)n1-c1ccccc1 [Duvelisib (IPI-145, INK1197)]",−0.2128
4,Skepinone-L,−0.7997
5,NC(=O)Nc1sc(-c2ccc(F)cc2)cc1C(N)=O [TPCA-1],−0.08928
6,"COc1cc(F)c(F)c(Nc2ccc(I)cc2F)c1NS(=O)(=O)C1(C[C@H](O)CO)CC1 [Refametinib (RDEA119, Bay 86-9766)]",0.4867
7,C[C@@H](Oc1cc(-c2cnn(C3CCNCC3)c2)cnc1N)c1c(Cl)ccc(F)c1Cl [Crizotinib (PF-02341066)],0.196
8,CCCCCCCCc1ccc(CCC(N)(CO)CO)cc1.Cl [Fingolimod (FTY720) HCl],0.7051
9,COc1ccc(CNC(=O)Nc2ncc([N+](=O)[O-])s2)cc1 [AR-A014418],0.1293
10,"CN1CCN(c2ccc3nc(-c4c(N)c5c(F)cccc5[nH]c4=O)[nH]c3c2)CC1 [Dovitinib (TKI-258, CHIR-258)]",0.4746
11,Oc1cccc(-c2nc(N3CCOCC3)c3oc4ncccc4c3n2)c1 [PI-103],−1.021
12,O=C(NC(NC(=S)Nc1ccc(F)c([N+](=O)[O-])c1)C(Cl)(Cl)Cl)C(c1ccccc1)c1ccccc1 (centres unmarked) [CGK 733],0.1923
13,COc1ccc(-c2ccc3ncc4c(c3c2)n(-c2ccc(N3CCNCC3)c(C(F)(F)F)c2)c(=O)n4C)cn1 [BGT226 (NVP-BGT226)],−0.4638
14,"C=CC(=O)Nc1cccc(Oc2nc(Nc3ccc(N4CCN(C)CC4)cc3OC)ncc2Cl)c1 [WZ4002, reference compound]",−0.07545
15,COc1cc2nccc(Oc3ccc(NC(=O)NC4CC4)c(Cl)c3)c2cc1C(N)=O [Lenvatinib (E7080)],−0.314
16,Cc1ccc(Nc2nccc(N(C)c3ccc4c(C)n(C)nc4c3)n2)cc1S(N)(=O)=O.Cl [Pazopanib HCl (GW786034 HCl)],0.1817
17,CN1CCN(Cc2ccc(-c3cnc4[nH]cc(-c5ccc6[nH]ccc6c5)c4c3)cc2)CC1 [URMC-099],0.3515
18,"COc1cccc(-c2cc(=O)c3ccccc3o2)c1N [PD98059, reference compound]",0.3369
19,"O=C(NC[C@H](O)CO)c1ccncc1Nc1ccc(I)cc1F [Pimasertib (AS-703026), AS703026, reference compound]",0.3252
20,Cc1ccc(NC(=O)c2cccc(N(C)C)c2)cc1NC(=O)c1ccc(O)cc1 [ZM 336372],0.2177
21,O=C(O)c1ccc(Nc2ncc3c(n2)-c2ccc(Cl)cc2C(c2c(F)cccc2F)=NC3)cc1 [MLN8054],0.07059
22,CCc1nc(-c2cccc(C)c2)c(-c2ccnc(NC(=O)c3ccccc3)c2)s1 [TAK-715],0.02439
23,Cc1ccc(-c2nn(C(C)(C)C)c3ncnc(N)c23)cc1 [PP1],0.2956
24,CC(C)(C)n1nc(-c2ccc(Cl)cc2)c2c(N)ncnc21 [PP2],−0.01088

row,Compound,log2fc
1,Nc1ccc(-c2ccc3ncc4ccc(=O)n(-c5cccc(C(F)(F)F)c5)c4c3c2)cn1 [Torin 2],1.267
2,CS(=O)(=O)N1CCN(Cc2cc3nc(-c4cccc5[nH]ncc45)nc(N4CCOCC4)c3s2)CC1 [Pictilisib (GDC-0941)],−1.17
3,Cc1cc(C(C)Nc2ccccc2)c2nc(N3CCOCC3)cc(=O)n2c1 (centres unmarked) [TGX-221],−0.3415
4,COc1ccccc1-c1cc(Nc2cccc(CS(N)(=O)=O)c2)ncn1 [LDC000067],−0.05049
5,FC(F)c1nc2ccccc2n1-c1nc(N2CCOCC2)nc(N2CCOCC2)n1 [ZSTK474],−0.8509
6,CS(=O)(=O)c1cccc(CNc2nc(Nc3ccc4c(c3)CCC(=O)N4)ncc2C(F)(F)F)c1 [PF-573228],0.4325
7,NC(=O)Nc1cc(-c2cccc(F)c2)sc1C(=O)N[C@H]1CCCNC1 [AZD7762],0.8568
8,N#C/C(=C(/N)Sc1ccc(N)cc1)c1ccccc1C(F)(F)F [SL-327],−0.2882
9,COc1cc(N2CCC(N)CC2)ccc1Nc1ncc(Cl)c(-c2c[nH]c3ccccc23)n1 [AZD3463],−0.06328
10,CC(=O)Nc1nc(C)c(-c2ccc(Cl)c(S(=O)(=O)NCCO)c2)s1 [PIK-93],0.3162
11,CN1CCN(CCOc2cc(OC3CCOCC3)c3c(Nc4c(Cl)ccc5c4OCO5)ncnc3c2)CC1 [Saracatinib (AZD0530)],0.4009
12,CN(c1ncccc1CNc1nc(Nc2ccc3c(c2)CC(=O)N3)ncc1C(F)(F)F)S(C)(=O)=O [PF-00562271],0.8274
13,NCC(=O)Nc1ccc(-n2nc(C(F)(F)F)cc2-c2ccc3c(ccc4ccccc43)c2)cc1 [OSU-03012 (AR-12)],0.7911
14,Cc1ccc(F)c(NC(=O)Nc2ccc(-c3cccc4[nH]nc(N)c34)cc2)c1 [Linifanib (ABT-869)],−0.2483
15,Cc1cc(O)c2c(c1)C(=O)c1cccc(O)c1C2=O [Chrysophanic Acid],−0.1902
16,O=C1NC(=O)C(c2cnc3ccccn23)=C1c1cn2c3c(cc(F)cc13)CN(C(=O)N1CCCCC1)CC2 [LY2090314],1.91
17,CCOc1cc2ncc(C#N)c(Nc3ccc(F)c(Cl)c3)c2cc1NC(=O)/C=C/CN(C)C [Pelitinib (EKB-569)],0.96
18,Oc1ccc(-c2nc(-c3ccc(F)cc3)c(-c3ccncc3)[nH]2)cc1 [SB202190 (FHPI)],−0.3986
19,CC1=C(C(=O)Nc2cc3cn[nH]c3cc2F)C(c2ccc(C(F)(F)F)cc2)CC(=O)N1 (centres unmarked) [GSK429286A],−0.03939
20,CS(=O)(=O)CCNCc1ccc(-c2ccc3ncnc(Nc4ccc(OCc5cccc(F)c5)c(Cl)c4)c3c2)o1 [Lapatinib],0.9499
21,"Cc1[nH]c(/C=C2\C(=O)Nc3ccccc32)c(C)c1CCC(=O)O [Orantinib (TSU-68, SU6668)]",−0.2487
22,"CC[C@H](CO)Nc1nc(NCc2ccccc2)c2ncn(C(C)C)c2n1 [Roscovitine (Seliciclib, CYC202)]",0.5993
23,CN1CCN(S(=O)(=O)c2ccc(-c3cnc(N)c(C(=O)Nc4cccnc4)n3)cc2)CC1 [AZD2858],0.1991
24,Cc1nc(NC(=O)N2CCC[C@H]2C(N)=O)sc1-c1ccnc(C(C)(C)C(F)(F)F)c1 [Alpelisib (BYL719)],−0.1349

row,Compound,log2fc
1,C[C@H]1[C@H](C)CC[C@]2(C(=O)O)CC[C@]3(C)C(=CC[C@@H]4[C@@]5(C)C[C@@H](O)[C@H](O)[C@@](C)(CO)[C@@H]5CC[C@]43C)[C@H]12 [Asiatic Acid],0.1505
2,Cc1cn(-c2cc(NC(=O)c3ccc(C)c(Nc4nccc(-c5cccnc5)n4)c3)cc(C(F)(F)F)c2)cn1 [Nilotinib (AMN-107)],0.331
3,"C=CC(=O)Nc1cccc(Sc2nc(Nc3ccc(N4CCN(C)CC4)cc3)ncc2Cl)c1 [WZ8040, reference compound]",0.02092
4,C=CC(=O)Nc1cccc(Nc2nc(Nc3ccc(Oc4ccnc(C(=O)NC)c4)cc3)ncc2F)c1 [CNX-774],−0.2519
5,"CCN(CC)CCNC(=O)c1c(C)[nH]c(/C=C2\C(=O)Nc3ccc(F)cc32)c1C [Sunitinib Malate, sunitinib, reference compound]",−0.1249
6,C=CC(=O)Nc1cc(Nc2nccc(-c3cn(C)c4ccccc34)n2)c(OC)cc1N(C)CCN(C)C [Osimertinib (AZD9291)],−0.01286
7,COc1ccc(S(=O)(=O)N(C(C)=O)c2ccccc2/C=C/c2cc[n+]([O-])cc2)cc1 [HMN-214],0.2477
8,CCN(CCO)CCCOc1ccc2c(Nc3cc(CC(=O)Nc4cccc(F)c4)[nH]n3)ncnc2c1 [Barasertib (AZD1152-HQPA)],0.7387
9,CNCc1ccc(-c2cc(-c3nc(-c4ccc(S(=O)(=O)C(C)C)cc4)cnc3N)on2)cc1 [VE-822],0.3083
10,COc1ccc(S(=O)(=O)N(CCO)c2ccccc2CN(C)C/C=C/c2ccc(Cl)cc2)cc1.O=P(O)(O)O [KN-93 Phosphate],0.02491
11,O=C(NCc1ccccc1)c1csc(Nc2ccncn2)n1 [Thiazovivin],−0.4963
12,O=C(Nc1c[nH]nc1-c1nc2ccc(CN3CCOCC3)cc2[nH]1)NC1CC1 [AT9283],2.163
13,C[C@@H]1CN(CC(=O)Nc2ccc3c(c2)Cc2cccc(-c4cc(=O)cc(N5CCOCC5)o4)c2S3)C[C@H](C)O1 [KU-60019],0.886
14,PF-477736,−2.035
15,COc1cc2ncnc(Nc3ccc(O)c(Br)c3)c2cc1OC [WHI-P154],0.511
16,Cn1c(Nc2ccc(C(F)(F)F)cc2)nc2cc(Oc3ccnc(-c4ncc(C(F)(F)F)[nH]4)c3)ccc21 [RAF265 (CHIR-265)],0.9001
17,OCCn1cc(-c2cnc3nnn(Cc4ccc5ncccc5c4)c3n2)cn1 [PF-04217903],0.2177
18,CO[C@H]1C[C@@H]2CC[C@@H](C)[C@@](O)(O2)C(=O)C(=O)N2CCCC[C@H]2C(=O)O[C@H]([C@H](C)C[C@@H]2CC[C@H](n3cnnn3)[C@H](OC)C2)CC(=O)[C@H](C)/C=C(\C)[C@@H](O)[C@@H](OC)C(=O)[C@H](C)C[C@H](C)/C=C/C=C/C=C/1C [Zotarolimus (ABT-578)],−1.34
19,"CC(C)(O)CC(=O)NCCn1ccc2ncnc(Nc3ccc(Oc4cccc(C(F)(F)F)c4)c(Cl)c3)c21 [TAK-285, reference compound]",0.3876
20,COc1ccc2cc(-c3nc(-c4ccc([S+](C)[O-])cc4)[nH]c3-c3ccncc3)ccc2c1 (centres unmarked) [Tie2 kinase inhibitor],−0.08697
21,O=C1NC(=O)C(c2ccccc2[N+](=O)[O-])=C1Nc1ccc(O)c(Cl)c1 [SB415286],0.2736
22,O=C(/C=C/c1ccc2ccccc2n1)c1ccncc1 [PFK15],−0.9312
23,COc1cc2nccc(Oc3ccc(NC(=O)C4(C(=O)Nc5ccc(F)cc5)CC4)cc3)c2cc1OC.O=C(O)C[C@H](O)C(=O)O [Cabozantinib malate (XL184)],0.5713
